Measured values taken from patent publication US20080194524A1, “Compounds For the Inhibition of Undesired Cell Proliferation and Use Thereof” (JERINI AG, priority 2003, published 2008).
Where a SMILES comes first, the peptide text is derived from it. [ ]: non-standard residue; d: D form. The star is where a group is joined. 2Nal = N[C@@H](Cc1ccc2ccccc2c1)C(=O)O; Bta = N[C@@H](Cc1csc2ccccc12)C(=O)O; Benzyl(3,4-Cl2) = Clc1ccc(C*)cc1Cl; Pip = O=C(O)[C@@H]1CCCCN1; CH2PO3H2 = O=P(O)(O)C*; Inp = O=C(O)C1CCNCC1; Mpa = O=C(O)CCS

The compounds below were run against hPin1 (Protein interacting with NIMA (-kinase)) (Homo sapiens, UniProt Q13526) (assay: protease-coupled PPIase assay, hPin1). Conditions: not given.
hPin1 (Protein interacting with NIMA (-kinase)), sequence (Q13526 whole entry): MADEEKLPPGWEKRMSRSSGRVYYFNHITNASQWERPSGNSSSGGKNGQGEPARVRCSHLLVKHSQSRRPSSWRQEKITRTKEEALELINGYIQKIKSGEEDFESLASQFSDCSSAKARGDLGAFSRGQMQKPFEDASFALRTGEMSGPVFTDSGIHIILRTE
Format: biochemical
In the case of `NC(=O)[C@H](Cc1ccc2ccccc2c1)NC(=O)[C@@H]1CCCCN1C(=O)[C@H](CSCP(=O)(O)O)NC(=O)[C@H](Cc1csc2ccccc12)NC(=O)C1CCNCC1` [Compound 18, {2-{3-Benzo[b]thiophen-3-yl-2-[(piperidine-4-carbonyl)-amino]-propionylamino}-3-[2-(1-carbamoyl-2-naphthalen-2-yl-ethylcarbamoyl)-piperidin-1-yl]-3-oxo-propylsulfanylmethyl}-phosphonic acid] (H-[Inp][Bta]C(CH2PO3H2)[Pip][2Nal]-NH2), the IC50 is reported as less than 1000 nM.
With `CC(=O)N[C@@H](Cc1csc2ccccc12)C(=O)N[C@H](CSCP(=O)(O)O)C(=O)N1CCCC[C@H]1C(=O)N[C@@H](Cc1ccc2ccccc2c1)C(N)=O` (stereo in doubt) [Compound 3, {2-(2-Acetylamino-3-benzo[b]thiophen-3-yl-propionylamino)-3-[2-(1-carbamoyl-2-naphthalen-2-yl-ethylcarbamoyl)-piperidin-1-yl]-3-oxo-propylsulfanylmethyl}-phosphonic acid] the IC50 was less than 1000 nM.

Same assay, conditions: hPin1 6 nM; substrate Ac-Ala-Ala-Ser(PO3H2)-Pro-Arg-pNA, trypsin; 35 mM HEPES pH 7.8, 6° C.; read-out: Specificity of the inhibition with rotamases, Target T-1 (IC50 class)
Compound `CCCCOC(=O)N[C@@H](CSCP(=O)(O)O)C(=O)N1CCCC[C@H]1C(=O)N[C@@H](Cc1ccc2ccccc2c1)C(N)=O` [Compound 44, {2-Butoxycarbonylamino-3-[2-(1-carbamoyl-2-naphthalen-2-yl-ethylcarbamoyl)-piperidin-1-yl]-3-oxo-propylsulfanylmethyl}-phosphonic acid] has an IC50 of 1000 to 10000 nM.
In the case of `NC(=O)[C@H](Cc1ccc2ccccc2c1)NC(=O)[C@@H]1CCCCN1C(=O)[C@H](CSCP(=O)(O)O)NC(=O)CCSCc1ccc(Cl)c(Cl)c1` [Compound 6, {3-[2-(1-Carbamoyl-2-naphthalen-2-yl-ethylcarbamoyl)-piperidin-1-yl]-2-[3-(3.4-dichloro-benzylsulfanyl)-propionylamino]-3-oxo-propylsulfanylmethyl}-phosphonic acid] ([Mpa](Benzyl(3,4-Cl2))C(CH2PO3H2)[Pip][2Nal]-NH2), the IC50 is reported as 1000 to 10000 nM.
`O=C(NCc1ccccc1)[C@@H]1CCCCN1C(=O)CSCP(=O)(O)O` [Compound 66, [2-(2-Benzylcarbamoyl-piperidin-1-yl)-2-oxo-ethylsulfanylmethyl]-phosphonic acid] gave an IC50 of 1000 to 10000 nM.
Work on `NC(=O)[C@H](Cc1ccc2ccccc2c1)NC(=O)[C@@H]1CCCCN1C(=O)[C@H](CSCP(=O)(O)O)NC(=O)CCN1CCCCC1` [Compound 54, [3-[2-(1-Carbamoyl-2-naphthalen-2-yl-ethylcarbamoyl)-piperidin-1-yl]-3-oxo-2-(3-piperidin-1-yl-propionylamino)-propylsulfanylmethyl]-phosphonicacid] yielded an IC50 of 1000 to 10000 nM.
Compound `CC(C)(C)NC(=O)[C@H](Cc1ccc2ccccc2c1)NC(=O)[C@@H]1CCCCN1CCSCP(=O)(O)O` [Compound 71, {2-[2-(1-tert-Butylcarbamoyl-2-naphthalen-2-yl-ethylcarbamoyl)-piperidin-1-yl]-ethylsulfanylmethyl}-phosphonicacid] has an IC50 of less than 1000 nM.
In the case of `NC(=O)[C@H](Cc1ccc2ccccc2c1)NC(=O)[C@@H]1CCCCN1C(=O)[C@H](CSCP(=O)(O)O)NC(=O)CCCCc1ccccc1` [Compound 8, [3-[2-(1-Carbamoyl-2-naphthalen-2-yl-ethylcarbamoyl)-piperidin-1-yl]-3-oxo-2-(5-phenyl-pentanoylamino)-propylsulfanylmethyl]-phosphonicacid], the IC50 is reported as less than 1000 nM.
`NC(=O)[C@H](Cc1ccc2ccccc2c1)NC(=O)[C@@H]1CCCCN1C(=O)[C@H](CSCP(=O)(O)O)NC(=O)Cc1ccc(Cl)cc1` [Compound 35, {3-[2-(1-Carbamoyl-2-naphthalen-2-yl-ethylcarbamoyl)-piperidin-1-yl]-2-[2-(4-chloro-phenyl)-acetylamino]-3-oxo-propylsulfanylmethyl}-phosphonicacid] showed an IC50 of less than 1000 nM.
Work on `NC(=O)[C@H](Cc1ccc2ccccc2c1)NC(=O)[C@@H]1CCCCN1C(=O)[C@H](CSCP(=O)(O)O)NC(=O)CN1CCNCC1` [Compound 41, [3-[2-(1-Carbamoyl-2-naphthalen-2-yl-ethylcarbamoyl)-piperidin-1-yl]-3-oxo-2-(2-piperazin-1-yl-acetylamino)-propylsulfanyl-methyl]-phosphonic acid] yielded an IC50 of 1000 to 10000 nM.
`NC(=O)[C@H](Cc1ccc2ccccc2c1)NC(=O)[C@@H]1CCCCN1C(=O)[C@H](CSCP(=O)(O)O)NC(=O)C1CCc2ccccc2C1` (stereo partly shown) [Compound 15, {3-[2-(1-Carbamoyl-2-naphthalen-2-yl-ethylcarbamoyl)-piperidin-1-yl]-3-oxo-2-[(1.2.3.4-tetrahydro-naphthalene-2-carbonyl)-amino]-propylsulfanylmethyl}-phosphonicacid] gave an IC50 of 1000 to 10000 nM.
With `NC(=O)[C@H](Cc1ccc2ccccc2c1)NC(=O)[C@@H]1CCCCN1C(=O)[C@H](CSCP(=O)(O)O)NS(=O)(=O)c1cccs1` [Compound 53, [3-[2-(1-Carbamoyl-2-naphthalen-2-yl-ethylcarbamoyl)-piperidin-1-yl]-3-oxo-2-(thiophene-2-sulfonylamino)propylsulfanyl-methyl]-phosphonic acid] the IC50 was less than 1000 nM.
Compound `CNC(=O)[C@H](Cc1ccc2ccccc2c1)NC(=O)[C@@H]1CCCCN1C(=O)CSCP(=O)(O)O` [Compound 64, {2-[2-(1-Methylcarbamoyl-2-naphthalen-2-yl-ethylcarbamoyl)-piperidin-1-yl]-2-oxo-ethylsulfanylmethyl}-phosphonicacid] has an IC50 of less than 1000 nM.
Work on `CS(=O)(=O)N[C@@H](CSCP(=O)(O)O)C(=O)N1CCCC[C@H]1C(=O)N[C@@H](Cc1ccc2ccccc2c1)C(N)=O` [Compound 51, {3-[2-(1-Carbamoyl-2-naphthalen-2-yl-ethylcarbamoyl)-piperidin-1-yl]-2-methanesulfonylamino-3-oxo-propylsulfanylmethyl}-phosphonic acid] yielded an IC50 of 1000 to 10000 nM.
In the case of `NC(=O)[C@H](Cc1ccc2ccccc2c1)NC(=O)[C@@H]1CCCCN1C(=O)[C@H](CSCP(=O)(O)O)NC(=O)OCC1c2ccccc2-c2ccccc21` [Compound 17], the IC50 is reported as 1000 to 10000 nM.
`O=C(NC(Cc1ccc2ccccc2c1)c1ccccn1)[C@@H]1CCCCN1C(=O)CSCP(=O)(O)O` (stereo partly shown) [Compound 77, {2-[2-(2-Naphthalen-2-yl-1-pyridin-2-yl-ethylcarbamoyl)-piperidin-1-yl]-2-oxo-ethylsulfanylmethyl}-phosphonicacid] was tested, and the IC50 was less than 1000 nM.
For `NC(=O)[C@H](Cc1ccc2ccccc2c1)NC(=O)[C@@H]1CCCCN1C(=O)[C@H](CSCP(=O)(O)O)NC(=O)CCC(=O)c1ccc(Cl)cc1` [Compound 37, {3-[2-(1-Carbamoyl-2-naphthalen-2-yl-ethylcarbamoyl)-piperidin-1-yl]-2-[4-(4-chloro-phenyl)-4-oxo-butyrylamino]-3-oxo-propylsulfanylmethyl}-phosphonicacid], the IC50 was less than 1000 nM.
Work on `NC(=O)[C@H](Cc1ccc2ccccc2c1)NC(=O)[C@@H]1CCCCN1C(=O)[C@H](CSCP(=O)(O)O)NC(=O)Cc1ccccc1Cl` [Compound 34, {3-[2-(1-Carbamoyl-2-naphthalen-2-yl-ethylcarbamoyl)-piperidin-1-yl]-2-[2-(2-chloro-phenyl)-acetylamino]-3-oxo-propylsulfanylmethyl}-phosphonicacid] yielded an IC50 of less than 1000 nM.
Compound `COc1ccc(NC(=O)CC(SCP(=O)(O)O)C(=O)N2CCCC[C@H]2C(=O)N[C@@H](Cc2ccc3ccccc3c2)C(N)=O)cc1` (mixture of isomers) [Compound 70, {2-[2-(1-Carbamoyl-2-naphthalen-2-yl-ethylcarbamoyl)-piperidin-1-yl]-1-[(4-methoxy-phenyl-carbamoyl)-methyl]-2-oxo-ethylsulfanylmethyl}-phosphonicacid] has an IC50 of less than 1000 nM.
Work on `COc1cc(CC(=O)N[C@@H](CSCP(=O)(O)O)C(=O)N2CCCC[C@H]2C(=O)N[C@@H](Cc2ccc3ccccc3c2)C(N)=O)cc(OC)c1` [Compound 57, {3-[2-(1-Carbamoyl-2-naphthalen-2-yl-ethylcarbamoyl)-piperidin-1-yl]-2-[2-(3.5-dimethoxy-phenyl)-acetylamino]-3-oxo-propylsulfanylmethyl}-phosphonicacid] yielded an IC50 of less than 1000 nM.
Compound `NC(=O)[C@H](Cc1ccc2ccccc2c1)NC(=O)[C@@H]1CCCCN1C(=O)[C@H](CSCP(=O)(O)O)NC(=O)Cc1ccccc1` [Compound 21, {3-[2-(1-Carbamoyl-2-naphthalen-2-yl-ethylcarbamoyl)-piperidin-1-yl]-3-oxo-2-phenylacetylamino-propylsulfanylmethyl}-phosphonicacid] has an IC50 of less than 1000 nM.
`NC(=O)[C@H](Cc1ccc2ccccc2c1)NC(=O)[C@@H]1CCCCN1C(=O)[C@H](CSCP(=O)(O)O)NC(=O)c1cccc(Oc2ccccc2)c1` [Compound 14, [3-[2-(1-Carbamoyl-2-naphthalen-2-yl-ethylcarbamoyl)-piperidin-1-yl]-3-oxo-2-(3-phenoxy-benzoylamino)-propylsulfanylmethyl]-phosphonicacid] gave an IC50 of less than 1000 nM.
Compound `O=C(NCCc1ccccc1)[C@@H]1CCCCN1C(=O)CSCP(=O)(O)O` [Compound 67, [2-Oxo-2-(2-phenethylcarbamoyl-piperidin-1-yl)-ethylsulfanylmethyl]-phosphonicacid] has an IC50 of 1000 to 10000 nM.
`NC(=O)[C@H](Cc1ccc2ccccc2c1)NC(=O)[C@@H]1CCCCN1C(=O)CSCP(=O)(O)O` [Compound 28, {2-[2-(1-Carbamoyl-2-naphthalen-2-yl-ethylcarbamoyl)-piperidin-1-yl]-2-oxo-ethylsulfanylmethyl}-phosphonic acid] gave an IC50 of less than 1000 nM.
In the case of `NC(=O)[C@H](Cc1ccc2ccccc2c1)NC(=O)[C@@H]1CCCCN1C(=O)[C@H](CSCP(=O)(O)O)NC(=O)CCc1cccs1` [Compound 16, [3-[2-(1-Carbamoyl-2-naphthalen-2-yl-ethylcarbamoyl)-piperidin-1-yl]-3-oxo-2-(3-thiophen-2-yl-propionylamino)-propylsulfanylmethyl]-phosphonicacid], the IC50 is reported as 1000 to 10000 nM.
